28 molecules from patent US8796320B2, “1,3,4-Oxadiazole-2-carboxamide compound” (General Incorporated Association Pharma Valley Project …, priority 2009, dated 2014) can be followed below.

Test [1] has as its system STAT3. Put plainly: STAT3 transcription inhibition test (reporter gene method). The class given is cell-based. The settings on record: compound at 100 μM, STAT3 reporter HeLa stable cell line, oncostatin M 10 ng/mL, 4 hours; for inhibition at 100 µM: Homo sapiens, read-out: STAT3 transcription inhibitory activity (%). How it is done:
The inhibition of STAT3 transcription was evaluated by using STAT3 reporter HeLa stable cell line (Panomics Inc., catalog No. RC0003), a cell line for the reporter gene method, and performing the following method according to the appendix included therein.
STAT3, reporter HeLa stable cell line subcultured and maintained in a Dulbecco's modified Eagle's medium (DMEM) containing 10% fetal bovine serum, 100 units/mL penicillin, and 100 μg/mL streptomycin was inoculated at a concentration of 40000 cells/well to a 96-well plate (white) and attached to the plate by overnight incubation at 37° C. under 5% CO2. After addition of each evaluation compound adjusted to various concentrations (adjusted with a DMSO solution), the cells were precultured for 1 hour. Then, oncostatin M for activating STAT3 was added at a final concentration 10 ng/mL, and the cells were further cultured at 37° C. under 5% CO2 for 4 hours. Luciferase activity derived from the cells was determined using Steady-Glo Luciferase Assay System (Promega Corp.), and STAT3 transcriptional activity scores were calculated according to the following formula: STAT3 transcriptional activity score (%)=100×(Lchem−L0)/(LDMSO−L0) • L0: luminescence intensity obtained without stimulation with oncostatin M • Lchem: luminescence intensity obtained by the addition of a test sample • LDMSO: luminescence intensity obtained by the addition of only a solvent for dissolving a test sample
The test results were indicated in the rate of inhibition of STAT3 transcription by each compound at a concentration of 100 μM.

Test [2] relates to MDA-MB-468. Put plainly: MDA-MB-468 cell growth inhibitory activity. The class given is cell-based. The following applies: Homo sapiens; compound at 20 μM; MDA-MB-468, 72 hours. The protocol:
MDA-MB-468 diluted with phenol red-free DMEM/F-12 (GIBCO; 10% FBS, 20 units/ml penicillin/streptomycin) was inoculated at a concentration of 2000 cells/well to a 96-well plate (Greiner Bio-One) and cultured overnight at 37° C. in the presence of 5% CO2. Then, a test sample solution (containing 2 (v/v)% DMSO) adjusted to 10 μM was added thereto at a concentration of 10 μL/well and contacted with the cells at 37° C. for 72 hours in the presence of 5% CO2. Each well was washed three times with a medium. Then, after addition of 100 μL/well of a medium and 20 μL/well of CellTiter 96 AQueous, One Solution Reagent (Promega Corp.), the cells were incubated at 37° C. for 2 hours in the presence of 5% CO2. Absorbance at 495 nm was measured using Multiplate reader (Molecular Devices, Inc.), and the rate of inhibition of cell growth was calculated according to the following formula: Rate of inhibition of cell growth (%)=100−100×(Abschem−bkgd)/(AbsDMSO−bkgd) • Abschem: absorbance obtained by the addition of a test sample • AbsDMSO: absorbance obtained by the addition of only a solvent for test sample dissolution • bkgd: absorbance obtained by the addition of CellTiter 96 AQueous One Solution Reagent to a medium for cell culture
The test results were indicated in the rate of inhibition of cell growth by each compound at a concentration of 20 μM.

In the case of `O=C(Nc1nnc(-c2ccco2)o1)c1cccc(-c2ccccc2)c1` [Compound Ia-1, N-[5-(2-Furyl)-1,3,4-oxadiazol-2-yl]-3-biphenylcarboxamide], in test [1], the inhibition at 100 µM was determined as 60%. Turning to `O=C(Nc1nnc(-c2ccco2)o1)c1cccc(-c2cccc([N+](=O)[O-])c2)c1` [Compound Ia-5, N-[5-(2-Furyl)-1,3,4-oxadiazol-2-yl]-3′-nitro-3-biphenylcarboxamide], the inhibition at 100 µM in test [1] stood at 98%. Moreover, the inhibition at 20 µM in test [2] was 88%.

As to `O=C(Nc1nnc(-c2ccco2)o1)c1cccc(-c2ccc(F)cc2)c1` [Compound Ia-10, 4′-Fluoro-N-[5-(2-furyl)-1,3,4-oxadiazol-2-yl]-3-biphenylcarboxamide], in test [1], the inhibition at 100 µM amounted to 97%. Consider `Cc1ccc(-c2cccc(C(=O)Nc3nnc(-c4ccco4)o3)c2)cc1` [Compound Ia-12, N-[5-(2-Furyl)-1,3,4-oxadiazol-2-yl]-4′-methyl-3-biphenylcarboxamide], for which the inhibition at 100 µM in test [1] turned out to be 83%. The molecule further came in with an inhibition at 20 µM in test [2] of 61%. Consider `COc1ccc(-c2cccc(C(=O)Nc3nnc(-c4ccco4)o3)c2)cc1` [Compound Ia-16, N-[5-(2-Furyl)-1,3,4-oxadiazol-2-yl]-4′-methoxy-3-biphenylcarboxamide], for which the inhibition at 100 µM in test [1] was found to be 57%. With `O=C(Nc1nnc(-c2ccco2)o1)c1cccc(-c2ccc(C(=O)c3ccccc3)cc2)c1` [Compound Ia-19, 4′-Benzoyl-N-[5-(2-furyl)-1,3,4-oxadiazol-2-yl]-3-biphenylcarboxamide], in test [1], the inhibition at 100 µM worked out at 55%. The inhibition at 20 µM in test [2] was found to be 94%. Turning to `O=C(Nc1nnc(-c2ccco2)o1)c1cccc(-c2ccc([N+](=O)[O-])cc2)c1` [Compound Ia-24, N-[5-(2-Furyl)-1,3,4-oxadiazol-2-yl]-4′-nitro-3-biphenylcarboxamide], the inhibition at 100 µM in test [1] was found to be 94%. For the same molecule, the inhibition at 20 µM in test [2] was determined as 97%. The corresponding values for `Cc1cc(C#N)ccc1-c1cccc(C(=O)Nc2nnc(-c3ccco3)o2)c1` [Compound Ia-29, 4′-Cyano-N-[5-(2-furyl)-1,3,4-oxadiazol-2-yl]-2′-methyl-3-biphenylcarboxamide] are 81% and 87%. For `O=C(Nc1nnc(-c2ccco2)o1)c1cccc(-c2ccc3ccccc3c2)c1` [Compound Ia-33, N-[5-(2-Furyl)-1,3,4-oxadiazol-2-yl]-3-(2-naphthyl)benzenecarboxamide], the inhibition at 100 µM in test [1] was 90%. In test [2], the inhibition at 20 µM turned out to be 98%.

As to `Cc1ccc(-c2cccc(C(=O)Nc3nnc(-c4ccco4)o3)c2)o1` [Compound Ia-34, N-[5-(2-Furyl)-1,3,4-oxadiazol-2-yl]-3-(5-methyl-2-furyl)benzenecarboxamide], the inhibition at 100 µM in test [1] was determined as 78%. The same measure, in the same setting: next, `O=C(Nc1nnc(-c2ccco2)o1)c1cccc(-c2ccc3c(c2)OCO3)c1` [Compound Ia-42, N-[5-(2-Furyl)-1,3,4-oxadiazol-2-yl]-3-(3,4-methylenedioxyphenyl)benzenecarboxamide]: 88%.

Consider `O=C(Nc1nnc(-c2ccco2)o1)c1cccc(-c2ccc3sccc3c2)c1` [Compound Ia-47, 3-(5-Benzothienyl)-N-[5-(2-furyl)-1,3,4-oxadiazol-2-yl]benzenecarboxamide], for which, in test [1], the inhibition at 100 µM amounted to 58%. For the same molecule, the inhibition at 20 µM in test [2] was determined as 53%. The corresponding values for `Cn1ccc2cc(-c3cc(F)cc(C(=O)Nc4nnc(-c5ccco5)o4)c3)ccc21` [Compound Ia-52, 5-Fluoro-N-[5-(2-furyl)-1,3,4-oxadiazol-2-yl]-3-(1-methyl-5-indolyl)benzenecarboxamide] are 71% and 91%. The matching figures for `O=C(Nc1nnc(-c2ccco2)o1)c1cc(-c2ccc(Cl)cc2)nc(-c2ccc(Br)cc2)c1` [Compound Ia-56, 2-(4-Bromophenyl)-6-(4-chlorophenyl)-N-[5-(2-furyl)-1,3,4-oxadiazol-2-yl]-4-pyridinecarboxamide]: 87% and 61%.

As for `C[Si](C)(C)c1ccc(-c2cccc(C(=O)Nc3nnc(-c4ccco4)o3)c2)cc1` [Compound Ia-62, N-[5-(2-Furyl)-1,3,4-oxadiazol-2-yl]-4′-trimethylsilyl-3-biphenylcarboxamide], the inhibition at 100 µM in test [1] was found to be 76%. In addition, the inhibition at 20 µM in test [2] was determined as 71%.

Take `O=C(Nc1nnc(-c2ccco2)o1)c1cccc(-c2ccc(Oc3ccccc3)cc2)c1` [Compound Ia-66, N-[5-(2-Furyl)-1,3,4-oxadiazol-2-yl]-4′-phenoxy-3-biphenylcarboxamide]: the inhibition at 100 µM in test [1] is 58%. In test [2], this molecule displayed an inhibition at 20 µM of 59%. With `COC(=O)c1ccc(-c2cccc(C(=O)Nc3nnc(-c4ccco4)o3)c2)cc1` [Compound Ia-69, N-[5-(2-Furyl)-1,3,4-oxadiazol-2-yl]-4′-methoxycarbonyl-3-biphenylcarboxamide], the inhibition at 100 µM in test [1] was 53%. Moreover, the inhibition at 20 µM in test [2] turned out to be 69%. Consider `O=C(Nc1nnc(-c2ccco2)o1)c1cccc(-c2ccc(-c3ccc(Cl)cc3)cc2)c1` [Compound Ia-77, 4″-Chloro-N-[5-(2-furyl)-1,3,4-oxadiazol-2-yl]-3-(p-terphenyl)carboxamide], for which, in test [1], the inhibition at 100 µM is 80%. The inhibition at 20 µM in test [2] was 76%. For `CC(C)Oc1ccc(-c2ccc(-c3cccc(C(=O)Nc4nnc(-c5ccco5)o4)c3)cc2)cc1` [Compound Ia-81, N-[5-(2-Furyl)-1,3,4-oxadiazol-2-yl]-4″-isopropoxy-3-(p-terphenyl)carboxamide], in test [1], the inhibition at 100 µM is 63%. This molecule also came in with an inhibition at 20 µM in test [2] of 78%. The matching figures for `O=C(Nc1nnc(-c2ccco2)o1)c1cccc(-c2ccc(-c3cccc4ccccc34)cc2)c1` [Compound Ia-82, N-[5-(2-Furyl)-1,3,4-oxadiazol-2-yl]-4′-(1-naphthyl)-3-biphenylcarboxamide]: 54% and 75%. On to `O=C(Nc1nnc(-c2ccco2)o1)c1cccc(-c2ccc(CCN3CCOCC3)cc2)c1` [Compound Ia-90, N-[5-(2-Furyl)-1,3,4-oxadiazol-2-yl]-4′-(2-morpholinoethyl)-3-biphenylcarboxamide], for which, in test [1], the inhibition at 100 µM was determined as 97%.

Regarding `O=C(Nc1nnc(-c2ccco2)o1)c1ccc(-c2cccc(Cl)c2)o1` [Compound Ic-4, 5-(3-Chlorophenyl)-N-[5-(2-furyl)-1,3,4-oxadiazol-2-yl]-2-furancarboxamide], in test [1], the inhibition at 100 µM came out at 81%. On the same count and under the same terms, under `CCOC(=O)c1ccc(-c2ccc(C(=O)Nc3nnc(-c4ccco4)o3)o2)cc1` [Compound Ic-12, 5-(4-Ethoxycarbonylphenyl)-N-[5-(2-furyl)-1,3,4-oxadiazol-2-yl]-2-furancarboxamide] stands 73%. On the same count and under the same terms, under `O=C(Nc1nnc(-c2ccco2)o1)c1ccc(-c2ccc([N+](=O)[O-])cc2Cl)o1` [Compound Ic-14, 5-(2-Chloro-4-nitrophenyl)-N-[5-(2-furyl)-1,3,4-oxadiazol-2-yl]-2-furancarboxamide] stands 51%; under `O=C(Nc1nnc(-c2ccco2)o1)c1ccc(-c2cc([N+](=O)[O-])ccc2Cl)o1` [Compound Ic-19, 5-(2-Chloro-5-nitrophenyl)-N-[5-(2-furyl)-1,3,4-oxadiazol-2-yl]-2-furancarboxamide], 56%. On the same count and under the same terms, under `O=C(Nc1nnc(-c2ccco2)o1)c1ccc(-c2cc(Cl)cc(Cl)c2)o1` [Compound Ic-21, 5-(3,5-Dichlorophenyl)-N-[5-(2-furyl)-1,3,4-oxadiazol-2-yl]-2-furancarboxamide] stands 64%.

Take `Cc1oc(-c2ccccc2)cc1C(=O)Nc1nnc(-c2ccco2)o1` [Compound Ic-22, N-[5-(2-Furyl)-1,3,4-oxadiazol-2-yl]-2-methyl-5-phenyl-3-furancarboxamide]: the inhibition at 100 µM in test [1] was 65%.

Turning to `O=C(Nc1nnc(-c2ccco2)o1)c1nc(-c2ccc(F)cc2)n2c1CCCCC2` [Compound Ic-26], the “STAT3 transcription inhibitory activity (%)” value in test [1] worked out at 58%.
